The values that follow come from US20230190745A1, “USE OF METABOLIC REGULATORS FOR THE TREATMENT OF COVID-19” (YISSUM RESEARCH DEVELOPMENT COMPANY OF THE HEBREW …, priority 2020, published 2023).

The structures appear in SMILES notation. Like-named read-outs stand apart in the source and are kept apart here.

The test system of one data set is SARS-CoV-2. Briefly: Viral load quantitative real-time PCR in SARS-CoV-2 infected NHBE cells under drug treatment. The conditions noted are these: for reduction of SARS-CoV-2 viral load: 5 days of treatment, viral RNA vs DMSO vehicle, n=3. The class given is cell-based. (In general: Quantitative PCR measures a nucleic acid by following its amplification.)
For data set [1], the system named is COVID-19 patients. Briefly: Observational comparison of representation of metabolic regulator users in hospital records versus COVID-19 cases (chi-squared / IRR, Table 3). It counts as in vivo, human. As to conditions: for representation among COVID-19 severity indicators (hospitalization, ICU admission, deaths): chi-squared test vs general hospital medical records.

Data set [2] deals with SARS-CoV-2 infected primary lung cells. It counts as cell-based, human.
The subject of data set [3] is SARS-CoV-2 infected lung cells. It counts as cell-based. As to conditions: 5 days exposure, vs DMSO-treated and mock-infected controls.
Data set [4] deals with SARS-CoV-2 infected lung cells. Briefly: Cell viability (Hoechst staining) of SARS-CoV-2 infected lung cells exposed to drugs. It counts as cell-based, human. The conditions noted are these: 5 days exposure. As to the method:
Drug Treatments: Approximately 5×10^5 NHBE cells were infected with SARS-CoV-2 at a MOI of 2 in bronchial epithelial growth media. […] After 24 h, the media was collected and changed to bronchial epithelial growth media with the respective drug at the concentration listed above. Then, every 48 hours media was collected and replenished. The media was stored at −80° C. immediately after removal. Culture viability was assessed at the end the experiment using Hoechst staining.

Data set [5] has as its system COVID-19 patients. Briefly: Propensity score-matched analysis of hospitalized COVID-19 patients, outcomes after PSM (Table 5). It counts as in vivo, human.
Data set [6] concerns COVID-19 patients. Briefly: Retrospective cohort of hospitalized COVID-19 patients taking metabolic regulators, outcomes before PSM (Table 2). It counts as in vivo, human. The conditions noted are these: users before PSM. As to the method:
Israeli Study Design and Participants: A retrospective, multi-center study was conducted in Hadassah and Ichilov medical centers. A total of 20,153 participants were diagnosed positive for SARS-COV-2 following WHO interim guidance (World Health Organization, 2020). Only patients hospitalized and diagnosed with COVID-19 were included. Participants with incomplete electronic medical records, aged less than 18, with pregnancy or severe medical conditions, including acute lethal organ injury (i.e., acute coronary syndrome, acute stroke, and severe acute pancreatitis) were excluded. The flowchart for patient inclusion is illustrated in FIG. 4J. Participants were admitted between Mar. 1, 2020, and Aug. 31, 2020 to either the Hadassah Medical Center in Jerusalem or the Tel Aviv Sourasky Medical Center. The final date of the follow up was Sep. 28, 2020. The study protocols were approved by the institutional ethics committee. Patient informed consent was waived by each ethics committee. Demographic and clinical characteristics, vital signs, laboratory tests, radiological reports, therapeutic interventions, and outcome data were extracted from electronic medical records using a standardized data collection. The laboratory data included a routine blood test, serum biochemical markers reflecting liver injury, kidney injury, and cardiac injury, lipid profile, IL-6, CRP, procalcitonin, and D-dimer were collected during hospitalization. In-hospital medication and life support intervention included the classification of the drugs, the dosage, the course of treatment, and using respiratory support were also extracted from medical records.

In data set [7] the test system is COVID-19 patients. The conditions noted are these: 21-day hospitalization, vs PSM-matched controls.
Procedure: In clinical data, continuous variables with non-normal distributions were expressed as median [IQR]. Categorical variables were expressed as number and percentage (%). […] Comparisons between groups were performed with Mann-Whitney U test for nonparametric variables and Fisher's exact test or χ2 test for categorical variables. Person-time data (Incidence) of two groups with different exposures may be expressed as a difference between incidence rates or as a ratio of incidence rates (IRRs). The IRRs of endpoint outcomes were calculated to estimate the incidence difference in absolute change in the incidence of two comparison groups. The cumulative rates of death were compared using the Kaplan-Meier curves. Dynamic changes of inflammatory factors tracking from day 0 to day 28 after admission were depicted using the Lowess model. A two-side a less than 0.05 was considered to define statistical significance. Data were analyzed in R-3.6.3 (R Foundation for Statistical Computing, Vienna, Austria) and SPSS Statistics (version 23.0, IBM, Armonk, N.Y., USA).
To study the effects of metabolic regulators on COVID-19 progression the dynamic changes in circulating C-reactive protein (CRP), neutrophils, and lymphocytes markers of SARS-CoV-2 induced immunoinflammatory response were analyzed.
Data set [8] concerns COVID-19 patients. Kind of data set: Secondary outcomes and organ failure, incidence rate ratios and Cox hazard ratios (Table 4). The class given is in vivo, human. The source says: Any death that occurred was documented.
Where [9] appears, read: physiological concentrations (Cmax): 20 μM rosiglitazone, 5 μM empagliflozin, 1 mM metformin.
Setting [10] is: vs PSM-matched non-treatment group.
Setting [11] is: adjusted hazard ratio, mixed-effect Cox model, treatment versus non-treatment group.
Where [12] appears, read: incidence rate in treatment group (first figure of 'x versus y').
The mark [13] stands for this setting: incidence rate ratio, treatment versus non-treatment group.
[14] abbreviates: vs share in 249,939 patient records 2015-2020.

Turning to `CN(CCOc1ccc(CC2SC(=O)NC2=O)cc1)c1ccccn1` (stereo not shown) [Rosiglitazone], the “effect on SARS-CoV-2 infected primary cells (FIG. 4C-G)” value (“effect” for short) with SARS-CoV-2 was “no effect”.

In the case of `CC(C)(Oc1ccc(C2CC2(Cl)Cl)cc1)C(=O)O` (stereo not shown) [ciprofibrate], in the data set with COVID-19 patients [1], the “representation among COVID-19 severity indicators (hospitalization, ICU admission, deaths)” value is “underrepresented in ICU admissions and deaths”.

Consider `Clc1ccc(C(OCCN2CCCCC2)c2ccccc2)cc1` (stereo not shown) [cloperastine], for which the “reduction of SARS-CoV-2 viral load” value in the data set on SARS-CoV-2 (10 μM) is reported as 3 fold. For the same compound, the “glycolytic index / increase in glycolysis” value in data set [2] (Cmax concentration, infected primary cells) is “did not result in a reduction of lipid content or change in the glycolytic index”. Also, in data set [3], the “phospholipid accumulation / lipid content” value is “did not result in a reduction of lipid content”. Also, the cell viability entry in data set [4] is recorded as “without affecting cell viability”.

Turning to `OC[C@H]1O[C@@H](c2ccc(Cl)c(Cc3ccc(O[C@H]4CCOC4)cc3)c2)[C@H](O)[C@@H](O)[C@@H]1O` [empagliflozin], the “effect” value in the data set with SARS-CoV-2 (setting [9]) is given as “no effect”.

Consider `CC(C)OC(=O)C(C)(C)Oc1ccc(C(=O)c2ccc(Cl)cc2)cc1` [fenofibrate], for which the “reduction of SARS-CoV-2 viral load” value with SARS-CoV-2 (20 μM fenofibrate) stood at 2 logs. In addition, the “reduction of lactate to glucose ratio” value in data set [2] (SARS-CoV-2 infected primary lung cells, n=3, p<0.01) is listed as 60%. Besides, in [4], the cell viability result is reported as “without affecting cell viability”.

For `CN(C)C(=N)N=C(N)N` [metformin], the “Follow-up days, median (IQR)” value with COVID-19 patients [5] (median, drug users after PSM) is 4.8 days. In the data set with COVID-19 patients [5] (share of drug users after PSM), the “High Flow Oxygen, %” value is recorded as “(15.6%)”; the “ICU admission, %” value is “(16.3%)”; the “Mechanically Ventilated/ECMO, %” value was “(10.4%)”; the “Non-invasive positive pressure ventilation, %” value is “(2.2%)”. In addition, the “Oxygen Supplementation, %” value in the data set on COVID-19 patients [5] (share of drug users after PSM) is recorded as “(42.2%)”. Besides, in the data set with COVID-19 patients [5] (setting [10]), the ICU admission rates entry was “higher ICU admission rate and respiratory interventions”; the length of hospitalization entry was “longer hospitalizations”; the mortality rates result is “higher mortality rates”; the respiratory intervention rates result is “higher ICU admission rate and respiratory interventions”. Further, in the data set on COVID-19 patients [6], the “Follow-up days, median” value stood at 5.0 days; the “High Flow Oxygen, %” value is listed as “(19%)”; the “ICU admission, %” value is reported as “(30.7%)”; the “Mechanically Ventilated/ECMO, %” value is “(12.44%)”. Further, in the data set with COVID-19 patients [6], the “Non-invasive positive pressure ventilation, %” value is “(7.3%)” and the “Oxygen Supplementation, %” value was “(38%)”. Besides, the “effect” value in the data set with SARS-CoV-2 (setting [9]) is “no effect”. In the data set on COVID-19 patients [7], the “circulating CRP levels (inflammation)” value was “no significant differences”, the lymphocyte counts entry is “lower lymphocyte count during the recovery period” and the neutrophil counts result is “lower initial neutrophil counts but relativity similar response to their PSM-matched controls”. Further, in the data set with COVID-19 patients [8] (setting [11]), the “aHR, ICU admission” value was determined as 1.1; the “aHR, acute cardiac injury” value is recorded as 1.1; the “aHR, acute kidney injury” value came out at 0.48; the “aHR, acute liver injury” value is reported as 0.76. Besides, in the data set on COVID-19 patients [8] (setting [11]), the “aHR, invasive mechanical ventilation” value was found to be 1.3 and the “aHR, septic shock” value stood at 1.6. Further, in the data set with COVID-19 patients [8] (setting [12]), the “IR, ICU admission” value was 0.37 versus 0.31 100-person-day; the “IR, acute cardiac injury” value is reported as 0.25 versus 0.36 100-person-day; the “IR, acute kidney injury” value was 0.18 versus 0.37 100-person-day; the “IR, acute liver injury” value is 0.05 versus 0.11 100-person-day. Also, the “IR, septic shock” value with COVID-19 patients [8] (setting [12]) is listed as 0.16 versus 0.12 100-person-day. The “IR, invasive mechanical ventilation” value in the data set on COVID-19 patients [8] (incidence rate in treatment group (first figure of 'x versus y'; second is the non-treatment group)) was 0.15 versus 0.12 100-person-day. For the same compound, in the data set with COVID-19 patients [8] (setting [13]), the “IRR, ICU admission” value is 1.2; the “IRR, acute cardiac injury” value amounted to 0.69; the “IRR, acute kidney injury” value is on record as 0.47; the “IRR, acute liver injury” value is on record as 0.43. In the data set on COVID-19 patients [8] (setting [13]), the “IRR, invasive mechanical ventilation” value amounted to 1.3 and the “IRR, septic shock” value turned out to be 1.3. For the same compound, the “representation among COVID-19 severity indicators (hospitalization, ICU admission, deaths)” value in the data set on COVID-19 patients [1] was “significant over-representation”. Besides, in the data set on COVID-19 patients [1] (of 100 COVID-19 deceased), the “COVID-19 Deceased, number of patients taking the drug” value turned out to be 13 and the “COVID-19 Deceased, share of patients taking the drug” value came to 13.00%. Besides, in the data set on COVID-19 patients [1] (of 312 COVID-19 ICU patients), the “COVID-19 ICU, number of patients taking the drug” value is recorded as 42 and the “COVID-19 ICU, share of patients taking the drug” value amounted to 13.46%. Also, the “COVID-19 Hospitalization, share of patients taking the drug” value with COVID-19 patients [1] (of 1,531 hospitalized COVID-19 cases) came out at 8.82%. In addition, the “COVID-19 Hospitalization, number of patients taking the drug” value in the data set on COVID-19 patients [1] (of 1,531 hospitalized COVID-19 cases, adults over 40) was found to be 135. In addition, in the data set with COVID-19 patients [1] (setting [14]), the “IRR, COVID-19 Deceased” value worked out at 1.85 and the “IRR, COVID-19 Hospitalization” value was 1.26.

As for `CCCc1nc2c(C)cc(-c3nc4ccccc4n3C)cc2n1Cc1ccc(-c2ccccc2C(=O)O)cc1` [telmisartan], the “representation among COVID-19 severity indicators (hospitalization, ICU admission, deaths)” value in the data set on COVID-19 patients [1] was “over-represented in ICU admission and deaths”.
